This test concerns the target T1, histamine H3 receptor (Homo sapiens, UniProt Q9Y5N1).
T1 construct: expressed in transfected cells; host or cells: CHO K1 cells carrying pSwitch, transfected with pGeneH3 and induced with mifepristone; clone 3H3; membranes
In words: Histamine H3 functional antagonist assay ([35S]GTPγS, SPA, membranes of CHO K1 cells expressing the receptor). Format: biochemical. The settings on record: histamine-stimulated GTPγS binding, membranes with human H3. From the text:
A membrane preparation containing histamine H3 receptors may be prepared in accordance with the following procedures:
(i) Generation of Histamine H3 Cell Line
DNA encoding the human histamine H3 gene (Huvar, A. et al. (1999) Mol. Pharmacol. 55(6), 1101-1107) was cloned into a holding vector, pCDNA3.1 TOPO (InVitrogen) and its cDNA was isolated from this vector by restriction digestion of plasmid DNA with the enzymes BamH1 and Not-1 and ligated into the inducible expression vector pGene (InVitrogen) digested with the same enzymes. The GeneSwitch™ system (a system where in transgene expression is switched off in the absence of an inducer and switched on in the presence of an inducer) was performed as described in U.S. Pat. Nos. 5,364,791; 5,874,534; and 5,935,934. Ligated DNA was transformed into competent DH5α E. coli host bacterial cells and plated onto Luria Broth (LB) agar containing Zeocin™ (an antibiotic which allows the selection of cells expressing the sh ble gene which is present on pGene and pSwitch) at 50 μg ml^−1. Colonies containing the re-ligated plasmid were identified by restriction analysis. DNA for transfection into mammalian cells was prepared from 250 ml cultures of the host bacterium containing the pGeneH3 plasmid and isolated using a DNA preparation kit (Qiagen Midi-Prep) as per manufacturers guidelines (Qiagen).
CHO K1 cells previously transfected with the pSwitch regulatory plasmid (InVitrogen) were seeded at 2×10e6cells per T75 flask in Complete Medium, containing Hams F12 (GIBCOBRL, Life Technologies) medium supplemented with 10% v/v dialysed foetal bovine serum, L-glutamine, and hygromycin ([…]), 24 hours prior to use. Plasmid DNA was transfected into the cells using Lipofectamine plus according to the manufacturers guidelines (InVitrogen). 48 hours post transfection cells were placed into complete medium supplemented with […] Zeocin™.
10-14 days post selection 10 nM Mifepristone (InVitrogen), was added to the culture medium to induce the expression of the receptor. 18 hours post induction cells were detached from the flask using ethylenediamine tetra-acetic acid (EDTA; 1:5000; InVitrogen), following several washes with phosphate buffered saline pH 7.4and resuspended in Sorting Medium containing Minimum Essential Medium (MEM), without phenol red, and supplemented with Earles salts and 3% Foetal Clone II (Hyclone). Approximately 1×10e7 cells were examined for receptor expression by staining with a rabbit polyclonal antibody, 4a, raised against the N-terminal domain of the histamine H3 receptor, incubated on ice for 60 minutes, followed by two washes in sorting medium. Receptor bound antibody was detected by incubation of the cells for 60 minutes on ice with a goat anti rabbit antibody, conjugated with Alexa 488 fluorescence marker (Molecular Probes). Following two further washes with Sorting Medium, cells were filtered through a 50 μm Filcon™ (BD Biosciences) and then analysed on a FACS Vantage SE Flow Cytometer fitted with an Automatic Cell Deposition Unit. Control cells were non-induced cells treated in a similar manner. Positively stained cells were sorted as single cells into 96-well plates, containing Complete Medium containing 500 μg ml^−1 Zeocin™ and allowed to expand before reanalysis for receptor expression via antibody and ligand binding studies. One clone, 3H3, was selected for membrane preparation.
(ii) Membrane Preparation from Cultured Cells
All steps of the protocol are carried out at 4° C. and with pre-cooled reagents. The cell pellet is resuspended in 10 volumes of buffer A2 containing 50 mM N-2-hydroxyethylpiperazine-N′-2-ethanesulfonic acid (HEPES) (pH 7.40) supplemented with […] leupeptin (acetyl-leucyl-leucyl-arginal; Sigma L2884), 25 μg/ml bacitracin (Sigma B0125), 1 mM ethylenediamine tetra-acetic acid (EDTA), 1 mM phenylmethylsulfonyl fluoride (PMSF) and 2×10e-6M pepstain A (Sigma). […]
Background: Binding of GTPγS marks nucleotide exchange on a G protein.

Where a name gives a salt, the structure may show the parent alone. Where only a bound is given, the exact number is not on record here.

The values that follow come from patent publication US20060247227A1, “Substituted piperidines as histamine h3 receptor ligands” (priority 2003, published 2006).

For orientation: Ki means a dissociation constant, usually derived from enzyme kinetics or from competition with a known ligand. A higher Ki goes with weaker binding.

T1 sequence (Q9Y5N1 whole entry): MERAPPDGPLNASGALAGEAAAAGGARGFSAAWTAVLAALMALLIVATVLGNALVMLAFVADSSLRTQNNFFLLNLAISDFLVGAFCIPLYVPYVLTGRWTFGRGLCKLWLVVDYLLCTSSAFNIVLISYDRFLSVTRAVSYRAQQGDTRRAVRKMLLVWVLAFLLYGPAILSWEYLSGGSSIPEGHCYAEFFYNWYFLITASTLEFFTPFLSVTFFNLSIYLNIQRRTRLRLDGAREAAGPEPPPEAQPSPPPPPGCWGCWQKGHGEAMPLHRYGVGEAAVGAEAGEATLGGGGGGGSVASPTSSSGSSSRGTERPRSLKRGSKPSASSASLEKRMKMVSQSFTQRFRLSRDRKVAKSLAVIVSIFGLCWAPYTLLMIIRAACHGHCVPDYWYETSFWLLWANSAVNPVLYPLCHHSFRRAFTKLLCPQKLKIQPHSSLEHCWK

The compound `CCNC(=O)c1cnc(N2CCC(OC3CCN(C(C)C)CC3)CC2)cn1` [Example E76] showed a Ki of at most 1 nM.

Regarding `FC(F)(F)c1ccc(N2CCC(OC3CCN(C4CCC4)CC3)CC2)cn1` [Example E49, 5-{4-[(1-Cyclobutyl-4-piperidinyl)oxy]-1-piperidinyl}-2-(trifluoromethyl)pyridine hydrochloride], the Ki was at most 1 nM. With `CC[C@H](C)N1CCC(OC2CCN(c3ccc(C(C)=O)cc3)CC2)CC1` [Example E101] the figure was at most 1 nM.

For `O=C(c1ccc(N2CCC(OC3CCN(C4CCC4)CC3)CC2)nc1)N1CCOCC1` [Example E57], the inhibition constant (Ki) was at most 1 nM. With `FC(F)(F)c1ccc(N2CCC(OC3CCN(C4CCC4)CC3)CC2)nc1` [Example E86, 2-{4-[(1-Cyclobutyl-4-piperidinyl)oxy]-1-piperidinyl}-5-(trifluoromethyl)pyridine hydrochloride] the figure was at most 1 nM. With `CCNC(=O)c1ccc(N2CCC(OC3CCN(C(C)C)CC3)CC2)cn1` [Example E39] the figure was at most 1 nM; with `Cc1ccc2cc(N3CCC(OC4CCN(C5CCC5)CC4)CC3)ccc2n1` [Example E94, 6-{4-[(1-Cyclobutyl-4-piperidinyl)oxy]-1-piperidinyl}-2-methylquinoline hydrochloride], at most 1 nM. With `CC(C)N1CCC(OC2CCN(c3ccc(C(F)(F)F)nc3)CC2)CC1` [Example E81, 5-{4-[(1-Methylethyl-4-piperidinyl)oxy]-1-piperidinyl}-2-(trifluoromethyl)pyridine hydrochloride] the figure was at most 1 nM; with `CC(=O)c1ccc(N2CCC(OC3CCN(C4CCC4)CC3)CC2)c(F)c1` [Example E109, 1-(4-{4-[(1-Cyclobutyl-4-piperidinyl)oxy]-1-piperidinyl}-3-fluorophenyl)ethanone], at most 1 nM; with `Cc1noc(-c2ccc(N3CCC(OC4CCN(C(C)C)CC4)CC3)cc2)n1` [Example E17, 1-(1-Methylethyl)-4-({1-[4-(3-methyl-1,2,4-oxadiazol-5-yl)phenyl]-4-piperidinyl}oxy)piperidine hydrochloride], below 0.316 nM. The compound `CC(C)N1CCC(OC2CCN(c3ccc(C#N)cn3)CC2)CC1` [Example E1, 6-(4-([1-(1-Methylethyl)-4-piperidinyl]oxy}-1-piperidinyl)-3-pyridinecarbonitrile hydrochloride] had an inhibition constant (Ki) below 10 nM. With `CC(C)N1CCC(OC2CCN(c3cccc(C(=O)N4CCOCC4)n3)CC2)CC1` [Example E61] the figure was below 10 nM; with `CC(C)N1CCC(OC2CCN(c3ccc(C(=O)N4CCOCC4)cc3)CC2)CC1` [Example E7], at most 1 nM.

Compound `Cc1cc(-c2ccc(N3CCC(OC4CCN(C5CCC5)CC4)CC3)cc2)on1` [Example E24] showed an inhibitory constant (Ki) of at most 1 nM. Compound `Cc1cc(-c2ccc(N3CCC(OC4CCN(C(C)C)CC4)CC3)cc2)on1` [Example E23] had an inhibitory constant (Ki) of at most 1 nM. The compound `CC(C)N1CCC(OC2CCN(c3ccc(C(=O)N4CCCCC4)cc3)CC2)CC1` [Example E8] gave an inhibitory constant (Ki) of at most 1 nM. With `O=C(c1ccc(N2CCC(OC3CCN(C4CCC4)CC3)CC2)nc1)N1CCCC1` [Example E56] the figure was at most 1 nM. With `CC(C)NC(=O)c1cnc(N2CCC(OC3CCN(C4CCC4)CC3)CC2)cn1` [Example E73] the figure was at most 1 nM; with `CC(=O)c1ccc(N2CCC(OC3CCN(C4CCC4)CC3)CC2)nc1` [Example E93, 1-(6-{4-[(1-Cyclobutyl-4-piperidinyl)oxy]-1-piperidinyl}-3-pyridinyl)ethanone], at most 1 nM. The compound `O=C(c1ccc(N2CCC(OC3CCN(C4CCC4)CC3)CC2)cn1)N1CCOCC1` [Example E37] showed a Ki of at most 1 nM.

Turning to `FC(F)(F)c1ncc(N2CCC(OC3CCN(C4CCC4)CC3)CC2)cn1` [Example E88, 5-{4-[(1-Cyclobutyl-4-piperidinyl)oxy]-1-piperidinyl}-2-(trifluoromethyl)pyrimidine], the Ki was below 0.316 nM.

`CC(C)N1CCC(OC2CCN(c3ccc(C(=O)N4CCCC4)cn3)CC2)CC1` [Example E52] showed an inhibition constant Ki below 10 nM.

In the case of `CN(C)C(=O)c1ccc(N2CCC(OC3CCN(C4CCC4)CC3)CC2)nc1` [Example E55], the inhibitory constant (Ki) was at most 1 nM.

`CC(C)N1CCC(OC2CCN(c3cnc(C(F)(F)F)cn3)CC2)CC1` [Example E85, 2-(4-[1-(1-Methylethyl)-4-piperidinyl]oxy}-1-piperidinyl)-5-(trifluoromethyl)pyrazine hydrochloride] gave an inhibitory constant (Ki) of at most 1 nM. With `O=C(NC1CCC1)c1ccc(N2CCC(OC3CCN(C4CCC4)CC3)CC2)cn1` [Example E104, N-Cyclobutyl-5-{4-[(1-cyclobutyl-4-piperidinyl)oxy]-1-piperidinyl}-2-pyridinecarboxamide] the figure was at most 1 nM; with `CC(=O)Nc1ccc(N2CCC(OC3CCN(C4CCC4)CC3)CC2)cc1F` [Example E98, N-(4-{4-[(1-Cyclobutyl-4-piperidinyl)oxy]-1-piperidinyl}-2-fluorophenyl)acetamide hydrochloride], at most 1 nM.

`CC(C)N1CCC(OC2CCN(c3ccc(C(=O)NC4CCC4)nc3)CC2)CC1` [Example E105, N-Cyclobutyl-5-(4-{[1-(1-methylethyl)-4-piperidinyl]oxy}-1-piperidinyl)-2-pyridinecarboxamide]: the inhibition constant Ki is at most 1 nM. With `O=C(c1ccc(N2CCC(OC3CCN(C4CCC4)CC3)CC2)cc1)N1CCOCC1` [Example E5, 4-[(4-{4-[(1-Cyclobutyl-4-piperidinyl)oxy]-1-piperidinyl}phenyl)carbonyl]morpholine hydrochloride] the figure was at most 1 nM. With `CC(C)N1CCC(OC2CCN(c3cnc(C(F)(F)F)nc3)CC2)CC1` [Example E89, 5-(4-{[1-(1-Methylethyl)-4-piperidinyl]oxy}-1 piperidinyl)-2-(trifluoromethyl) pyrimidine] the figure was at most 1 nM; with `Cc1ncc(-c2ccc(N3CCC(OC4CCN(C5CCC5)CC4)CC3)cc2)o1` [Example E22], at most 1 nM. With `CC(C)N1CCC(OC2CCN(c3ccc(C#N)cc3)CC2)CC1` [Example E4, 4-(4-{[1-(1-Methylethyl)-4-piperidinyl]oxy}-1-piperidinyl)benzonitrile hydrochloride] the figure was at most 1 nM; with `Cc1noc(-c2ccc(N3CCC(OC4CCN(C(C)C)CC4)CC3)cc2F)n1` [Example E113, 1-[3-Fluoro-4-(3-methyl-1,2,4-oxadiazol-5-yl)phenyl]-4-{[1-(1-methylethyl)-4-piperidinyl]oxy}piperidine hydrochloride], at most 1 nM; with `c1coc(-c2ccc(N3CCC(OC4CCN(C5CCC5)CC4)CC3)cc2)n1` [Example E21], at most 1 nM. `O=C(c1ccc(N2CCC(OC3CCN(C4CCC4)CC3)CC2)cc1)N1CCCC1` [Example E11] gave an inhibition constant (Ki) of at most 1 nM. With `Cc1noc(-c2ccc(N3CCC(OC4CCN(C5CCC5)CC4)CC3)cc2F)n1` [Example E110, 1-Cyclobutyl-4-({1-[3-fluoro-4-(3-methyl-1,2,4-oxadiazol-5-yl)phenyl]-4-piperidinyl}oxy)piperidine] the figure was at most 1 nM; with `CC(C)N1CCC(OC2CCN(c3cnc(C(=O)NC4CCC4)cn3)CC2)CC1` [Example E79], at most 1 nM.

In turn, `Cc1nc(-c2ccc(N3CCC(OC4CCN(C5CCC5)CC4)CC3)cc2)no1` [Example E25] gave a Ki of at most 1 nM.
